Assay results taken from patent US9446026B2, “Ocular formulations for drug-delivery to the posterior segment of the eye” (PanOptica, Inc., priority 2013, dated 2016).
Like-named read-outs stand apart in the source and are kept apart here.

Experiments:
[1] = test system: pathologic retinal and choroidal neovascularization; test: Topical ocular delivery in rodent models of retinal and choroidal neovascularization; type: in vivo
[2] = Solubility of Compound-I drug substance; type: physicochemical
Source text: The embodiments provide three formulations of Compound-I or its free base—the Formula II compound.

[3] = design: species or system Dutch-Belted rabbits and beagle dogs; settings: in vivo
Source text: Animals that received topical ocular administration of the tromethamine-based suspension were able to tolerate up to higher level of the active agent concentration in the formulation, as compared to equimolar formulations of the sodium phosphate-based Gel Drop.
Overall, the combination of decreased corneal exposure and corresponding improved ocular tolerability, while simultaneously maintaining or promoting drug delivery to the posterior segment target tissues, along with improved physicochemical stability, will provide greater benefit to patients compared to the ophthalmic Gel Drop formulation.
Retinal function was normal in all test article and vehicle treated groups during full-field electroretinograms performed in rabbits.

[4] = Ocular fluid and tissue concentrations, 0.4% Compound-I cyclodextrin solutions (Example 7, 24-day study); type: in vivo, Dutch-Belted rabbits; settings: Dutch-Belted, rabbit, topical
Description: The ocular solution of Compound-I comprising cyclodextrin was prepared and tested in different groups of animals.

[5] = Dutch-Belted (rabbit), beagle (dog), rabbit, dog

Cl.NC(=O)c1c(OCc2c(F)cc(Br)cc2F)nsc1NC(=O)NCCCCN1CCCC1 [Compound-I, 3-[(4-bromo-2,6-difluorophenyl)methoxy]-5-[[[[4-(1-pyrrolidinyl)butyl]amino]carbonyl]amino]-4-isothiazolecarboxamide hydrochloride]
Inhibition of pathologic retinal and choroidal neovascularization [1]: significant inhibition
solubility ([2]; 0.1N HCl, simulated gastric fluid): 40 µg/mL
solubility ([2]; 0.1N NaOH, aqueous buffer): 50 µg/mL
solubility ([2]; acetonitrile, organic solvent or mixture): 40 µg/mL
solubility ([2]; aqueous buffer, pH 7.5 (0.05M NaH2PO4)): 1000 µg/mL
solubility ([2]; aqueous buffer, pH 9.0 (0.05m Na2HPO4)): 700 µg/mL
solubility ([2]; deionized water, water): 500 to 1200 µg/mL
solubility ([2]; ethanol, organic solvent or mixture): 700 µg/mL
solubility ([2]; hexanes, organic solvent or mixture): < 10 µg/mL
solubility ([2]; methanol, organic solvent or mixture): 4300 µg/mL
solubility ([2]; tetrahydrofuran, organic solvent or mixture): 20 µg/mL
Corneal exposure of ophthalmic solution lower than equimolar ophthalmic gel drops [3, 5]: 5 to 10 fold
Corneal tissue exposure with ophthalmic gel drops [3, 5]: ≥ 100 µM
Alterations of deeper structures of the eye or optic nerve, ophthalmic gel drops [3]: No untoward alterations
Clinical or histopathologic findings with ophthalmic solution [3]: free of untoward clinical or histopathologic findings
concentration at 1 h ([4]; aqueous humor, 0.4 % (4 mg/mL), 30 μL/eye, Average concentration of Compound-I, Aqueous Humor, Group 8: 0.4% Compound-I in 8.41% KLEPTOSE HPB, 0.142% phosphate, 30 μL/eye, 2 doses per day): 6.56 nM
concentration at 1 h ([4]; aqueous humor, 0.4 % (4 mg/mL), 30 μL/eye, Average concentration of Compound-I, Aqueous Humor, Group 9: 0.4% Compound-I in […] KLEPTOSE HPB, 0.142% phosphate, 30 μL/eye, 2 doses per day): 3.13 nM
concentration at 1 h ([4]; aqueous humor, 0.4 % (4 mg/mL), 30 μL/eye, Average concentration of Compound-I, Aqueous Humor, Group 10: 0.4% Compound-I in 4.88% CAPTISOL, 0.142% phosphate, 30 μL/eye, 2 doses per day): 1.84 nM
concentration at 1 h ([4]; aqueous humor, 0.4 % (4 mg/mL), 30 μL/eye, Average concentration of Compound-I, Aqueous Humor, Group 11: 0.4% Compound-I in 4.88% CAPTISOL, […] phosphate, 30 μL/eye, 2 doses per day): 4.03 nM
concentration at 1 h ([4]; aqueous humor, 0.4 %, Aqueous humor concentration of Compound-I (range over groups), 0.4% Compound-I cyclodextrin solutions (KLEPTOSE or CAPTISOL), twice daily): 3.13 to 6.56 nM
concentration at 1 h ([4]; central choroid, 0.4 %): 259 to 769 nM
concentration at 1 h ([4]; central choroid, 0.4 % (4 mg/mL), 0.4% Ophthalmic Solution (CAPTISOL), Twice Daily 24 days, read-out: Central Choroid [Compound I]): 212 nM
concentration at 1 h ([4]; central choroid, 0.4 % (4 mg/mL), 0.4% Ophthalmic Solution (KLEPTOSE HP), Twice Daily 24 days, read-out: Central Choroid [Compound I]): 259 nM
concentration at 1 h ([4]; central choroid, 0.4 % (4 mg/mL), 0.4% Ophthalmic Solution (KLEPTOSE HPB), Twice Daily 24 days, read-out: Central Choroid [Compound I]): 769 nM
concentration at 1 h ([4]; central choroid, 0.4 % (4 mg/mL), 30 μL/eye, Average concentration of Compound-I, Central Choroid, Group 8: 0.4% Compound-I in 8.41% KLEPTOSE HPB, 0.142% phosphate, 30 μL/eye, 2 doses per day): 769 nM
concentration at 1 h ([4]; central choroid, 0.4 % (4 mg/mL), 30 μL/eye, Average concentration of Compound-I, Central Choroid, Group 9: 0.4% Compound-I in […] KLEPTOSE HPB, 0.142% phosphate, 30 μL/eye, 2 doses per day): 259 nM
concentration at 1 h ([4]; central choroid, 0.4 % (4 mg/mL), 30 μL/eye, Average concentration of Compound-I, Central Choroid, Group 10: 0.4% Compound-I in 4.88% CAPTISOL, 0.142% phosphate, 30 μL/eye, 2 doses per day): 212 nM
concentration at 1 h ([4]; central choroid, 0.4 % (4 mg/mL), 30 μL/eye, Average concentration of Compound-I, Central Choroid, Group 11: 0.4% Compound-I in 4.88% CAPTISOL, […] phosphate, 30 μL/eye, 2 doses per day): 345 nM
concentration at 1 h ([4]; central retina, 0.4 % (4 mg/mL), 30 μL/eye, Average concentration of Compound-I, Central Retina, Group 8: 0.4% Compound-I in 8.41% KLEPTOSE HPB, 0.142% phosphate, 30 μL/eye, 2 doses per day): 124 nM
concentration at 1 h ([4]; central retina, 0.4 % (4 mg/mL), 30 μL/eye, Average concentration of Compound-I, Central Retina, Group 9: 0.4% Compound-I in […] KLEPTOSE HPB, 0.142% phosphate, 30 μL/eye, 2 doses per day): 74.1 nM
concentration at 1 h ([4]; central retina, 0.4 % (4 mg/mL), 30 μL/eye, Average concentration of Compound-I, Central Retina, Group 10: 0.4% Compound-I in 4.88% CAPTISOL, 0.142% phosphate, 30 μL/eye, 2 doses per day): 53.1 nM
concentration at 1 h ([4]; central retina, 0.4 % (4 mg/mL), 30 μL/eye, Average concentration of Compound-I, Central Retina, Group 11: 0.4% Compound-I in 4.88% CAPTISOL, […] phosphate, 30 μL/eye, 2 doses per day): 101 nM
concentration at 1 h ([4]; central retina, 0.4 %, Central retina concentration of Compound-I (range over groups), 0.4% Compound-I cyclodextrin solutions (KLEPTOSE or CAPTISOL), twice daily): 53.1 to 124 nM
concentration at 1 h ([4]; cornea, 0.4 %): 6490 to 30000 nM
concentration at 1 h ([4]; cornea, 0.4 % (4 mg/mL), 0.4% Ophthalmic Solution (CAPTISOL), Twice Daily 24 days, read-out: Cornea [Compound I]): 6490 nM
